Data on 15 compounds can be found in patent publication US20080319065A1, “Systemic and Intrathecal Effects of a Novel Series of Phospholipase A2 Inhibitors on Hyperalgesia and Spinal Pge2 Release” (The Regents of the University of California, priority 2005, published 2008).

For series [1], the target named is T1, Group VIA iPLA2 (GVIA PLA2) (Homo sapiens, UniProt O60733).
T1 sequence (O60733 1-806): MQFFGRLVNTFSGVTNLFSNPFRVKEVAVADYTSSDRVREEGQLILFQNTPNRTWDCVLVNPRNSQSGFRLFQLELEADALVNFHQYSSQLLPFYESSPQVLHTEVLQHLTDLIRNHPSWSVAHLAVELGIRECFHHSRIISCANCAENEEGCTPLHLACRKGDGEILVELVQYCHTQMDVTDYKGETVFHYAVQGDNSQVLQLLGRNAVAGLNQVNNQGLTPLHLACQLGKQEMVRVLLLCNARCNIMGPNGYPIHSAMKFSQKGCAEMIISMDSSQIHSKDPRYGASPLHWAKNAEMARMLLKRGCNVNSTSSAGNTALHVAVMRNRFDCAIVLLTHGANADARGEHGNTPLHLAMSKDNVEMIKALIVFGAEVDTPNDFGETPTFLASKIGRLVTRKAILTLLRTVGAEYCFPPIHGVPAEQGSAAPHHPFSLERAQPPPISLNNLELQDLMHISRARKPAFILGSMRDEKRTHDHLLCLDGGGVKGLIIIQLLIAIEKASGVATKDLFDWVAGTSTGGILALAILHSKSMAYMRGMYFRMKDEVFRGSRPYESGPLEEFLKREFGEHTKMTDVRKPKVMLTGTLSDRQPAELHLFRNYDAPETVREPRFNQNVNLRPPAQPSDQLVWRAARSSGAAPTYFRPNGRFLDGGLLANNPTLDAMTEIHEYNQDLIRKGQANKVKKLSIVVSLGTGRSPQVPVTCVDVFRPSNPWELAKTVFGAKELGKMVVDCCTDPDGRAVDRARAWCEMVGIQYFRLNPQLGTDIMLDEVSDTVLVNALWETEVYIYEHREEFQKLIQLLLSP
In words: In vitro Group VIA iPLA2 mixed micelle assay. Type of series: biochemical. The following applies: for Inhibition of GVIA PLA2: at highest dose; for inhibition at 0.091 mole fraction: read-out: iPLA2 inh, percent inhibition. How it is done:
(§1) Numerous 2-oxoamides were tested for inhibition of PLA2s in in vitro assay systems. The data, summarized in Tables 1a, 1b and 2 are represented as XI(50) values unless otherwise noted. XI(50) is defined as the inhibitor concentration that produced 50% inhibition. XI(50) is used as opposed to the more common IC50 because GIVA and GVIA PLA2 are active at a two-dimensional lipid interface rather than in three-dimensional solution. (Deems, Anal. Biochem., 287:1-16, 2000). The 2-oxoamide inhibitors likely partition to the micelle interface and therefore must be represented as a percentage of surface concentration (mole fraction) as opposed to bulk concentration (molar units). (Kokotos, et al., J. Med. Chem., 45:2891-2893, 2002).
(§2) In vitro Group IV cPLA2 and Group VI iPLA2 assays were done as previously described (Kokotos, et al., supra, 2002). Briefly, 100 μM lipid substrate and 100,000 cpm radiolabeled analog were dried down under N2 and dissolved in assay buffer containing 400 μM Triton X-100 to yield a mixed micelle substrate solution. Inhibitors dissolved in DMSO were added to the reaction tubes and allowed to incubate with substrate for five minutes at 40° C. Pure enzyme was added to yield a final volume of 500 μl, and digestion was carried out at 40° C. for 30 minutes. Reactions were quenched and extracted using the Dole method and products were quantified by liquid scintillation counting. Percent inhibition was determined at a range of inhibitor mole fraction concentrations for XI(50) calculations.

Series [2] deals with T2, Group IVA cPLA2 (GIVA PLA2) (Homo sapiens, UniProt P47712).
T2 sequence (P47712 1-749): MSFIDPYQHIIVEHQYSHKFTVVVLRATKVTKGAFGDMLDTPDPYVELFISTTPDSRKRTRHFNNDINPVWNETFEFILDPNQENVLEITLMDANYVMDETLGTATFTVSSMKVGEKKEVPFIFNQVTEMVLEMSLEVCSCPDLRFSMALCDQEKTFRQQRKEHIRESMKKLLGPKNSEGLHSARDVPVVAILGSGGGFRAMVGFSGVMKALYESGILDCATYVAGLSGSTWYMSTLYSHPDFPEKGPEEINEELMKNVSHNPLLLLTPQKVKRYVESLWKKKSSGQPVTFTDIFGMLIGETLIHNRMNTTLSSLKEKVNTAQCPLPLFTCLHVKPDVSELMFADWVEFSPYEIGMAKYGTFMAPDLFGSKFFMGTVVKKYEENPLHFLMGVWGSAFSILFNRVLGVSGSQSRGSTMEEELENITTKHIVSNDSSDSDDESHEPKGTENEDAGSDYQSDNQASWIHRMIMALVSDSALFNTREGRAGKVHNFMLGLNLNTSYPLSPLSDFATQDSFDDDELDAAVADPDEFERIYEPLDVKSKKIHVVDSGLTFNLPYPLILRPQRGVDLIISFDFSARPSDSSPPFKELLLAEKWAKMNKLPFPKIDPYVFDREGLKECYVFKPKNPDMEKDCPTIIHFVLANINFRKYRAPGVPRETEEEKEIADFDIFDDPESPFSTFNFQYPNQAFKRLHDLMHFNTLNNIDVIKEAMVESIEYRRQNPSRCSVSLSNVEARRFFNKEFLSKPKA
In words: In vitro Group IVA cPLA2 mixed micelle assay. Type of series: biochemical. Conditions: for Inhibition of GIVA PLA2: at highest dose; for inhibition at 0.091 mole fraction: read-out: cPLA2 inh, percent inhibition (converted); for cPLA2 inh, XI(50): Table 3. As for the experimental part:
as §1, §2

In another series the target is T3, GV sPLA2 (Homo sapiens, UniProt P39877).
T3 sequence (P39877 21-138): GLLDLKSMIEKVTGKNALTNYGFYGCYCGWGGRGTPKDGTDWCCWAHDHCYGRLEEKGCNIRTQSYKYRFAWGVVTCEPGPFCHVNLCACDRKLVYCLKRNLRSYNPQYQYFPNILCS
In words: GV sPLA2 activity assay. Type of series: biochemical. The following applies: read-out: sPLA2 inh., percent inhibition. How it is done: GV sPLA2 activity was measured in a similar assay. The final assay buffer was composed of 50 mM Tris-HCl (pH 8.0) and 5 mM CaCl2. Each assay was performed in 500 μL total volume made up of 100 μL of 5× substrate solution (20 μL of 10 mM Triton X-100 and 80 μL assay buffer), 390 μL assay buffer, 10 μL GV sPLA2 solution (1 μL of 40 ng/μL stock and 9 μL assay buffer), and 5 μL of DMSO or 2-oxoamide in DMSO. The 5× substrate solution was prepared by drying down the phospholipids (in organic solvent) with N2. The appropriate volume of 10 mM Triton X-100 was added, heated and vortexed until clear. Then assay buffer was added to make a 5× substrate solution. The final mixed micelles were at 400 μM Triton X-100 and 100 μM DPPC (of which 100,000 cpm of ^14C-DPPC).

In turn, `COC(=O)CCCNC(=O)C(=O)CCCc1ccccc1` [AX037, 4-(2-Oxo-5-phenyl-pentanoylamino)-butyric acid methyl ester] registered a melting point of 30 to 31 °C. Besides, the “Inhibition of GVIA PLA2” value in series [1] is “ND (negligible inhibition (0-25%) at highest dose)”. Moreover, the “Inhibition of GIVA PLA2” value in series [2] is reported as “ND (negligible inhibition (0-25%) at highest dose)”.

Regarding `O=C(O)CCCNC(=O)C(=O)CCCc1ccccc1` [AX036, 4-(2-Oxo-5-phenyl-pentanoylamino)-butyric acid], the melting point lay within 65 to 67 °C. In addition, in series [1], the “Inhibition of GVIA PLA2” value was “ND (negligible inhibition (0-25%) at highest dose)”. Also, the “Inhibition of GIVA PLA2” value in series [2] is reported as “ND (negligible inhibition (0-25%) at highest dose)”.

In the case of `CCCCCCCCCCCCCCC(=O)C(=O)NC(C=CC(=O)O)CCCC` (stereo not drawn) [AX074, 4-(2-Oxo-hexadecanoylamino)-oct-2-enoic acid], the melting point lay within 65 to 67 °C. In series [1], the “inhibition of GVIA PLA2 (iPLA2), in words” value was “do not inhibit GVIA PLA2” and the “Inhibition of GVIA PLA2” value is given as “ND (negligible inhibition (0-25%) at highest dose)”. In series [2], the “Inhibition of GIVA PLA2, XI(50)” value is given as “XI(50) =0.003 ± 0.001 mole fraction” and the “inhibition of GIVA PLA2 (cPLA2), in words” value is reported as “inhibit GIVA PLA2”.

Compound `COC(=O)CCCNC(=O)C(=O)CCCCc1ccccc1` [AX038, 4-(2-Oxo-6-phenyl-hexanoylamino)-butyric acid methyl ester] came in with a melting point of 52 to 54 °C. In addition, in series [1], the “Inhibition of GVIA PLA2” value was “ND (negligible inhibition (0-25%) at highest dose)”. In addition, the “Inhibition of GIVA PLA2” value in series [2] was “ND (negligible inhibition (0-25%) at highest dose)”.

The compound `O=C(O)CCCNC(=O)C(=O)CCCCc1ccccc1` [AX035, 4-(2-Oxo-6-phenyl-hexanoylamino)-butyric acid] gave a melting point of 60 to 62 °C. Also, the “Inhibition of GVIA PLA2” value in series [1] is reported as “ND (negligible inhibition (0-25%) at highest dose)”. For the same compound, in series [2], the “Inhibition of GIVA PLA2” value was “ND (negligible inhibition (0-25%) at highest dose)”.

For `C=CCOC(=O)CCCNC(=O)C(=O)CC` [AX126], the inhibition at 0.091 mole fraction in series [1] is 63.2%; on GV sPLA2, 37.9%; in series [2], 52.9%.

`CCOCCCCNC(=O)C(=O)CC` [AX081]: the figures for the inhibition at 0.091 mole fraction (in series [1]; at GV sPLA2) were 50.9% and 76.5%, respectively. Moreover, the “cPLA2 inh, XI(50)” value in series [2] is given as “XI(50) =0.018 ± .016 mole fraction”.

With `CCOC(=O)c1ccc(NC(=O)C(=O)CC)cc1` [AX091], the inhibition at 0.091 mole fraction worked out at 14.3% in series [1] and 66.5% on GV sPLA2. In series [2], the “cPLA2 inh, XI(50)” value is reported as “XI(50) =0.029 ± .016 mole fraction”.

With `CCOC(=O)CCNC(=O)C(=O)CC` [AX104], the inhibition at 0.091 mole fraction is 50.6% in series [1], 58.8% at GV sPLA2 and 44% in series [2].

Turning to `CCC(=O)C(=O)NCC(=O)OC(C)(C)C` [AX111], the results for the inhibition at 0.091 mole fraction (in series [1]; at GV sPLA2; in series [2]) were 53.1%, 95.9% and 79.6%, respectively.

For `CCCCCCCCC=CCCCCCCCC(=O)C(=O)NCCCC(=O)O` [AX040, 4-(2-Oxo-nonadec-10-enoylamino)-butyric acid], the melting point is 57 to 59 °C. For the same compound, in series [1], the “inhibition of GVIA PLA2 (iPLA2), in words” value is “do not inhibit GVIA PLA2” and the “Inhibition of GVIA PLA2” value is recorded as “ND (negligible inhibition (0-25%) at highest dose)”. Moreover, the “inhibition of GIVA PLA2 (cPLA2), in words” value in series [2] is “inhibit GIVA PLA2”.

`CCOC(=O)CCCCNC(=O)C(=O)CC` [AX102]: the inhibition at 0.091 mole fraction in series [1] is 35.3%; on GV sPLA2, 47.1%; in series [2] it was 30.6%.

Turning to `CCOC(=O)CCCNC(=O)C(=O)CCc1ccc(OCC)cc1` [AX090], the inhibition at 0.091 mole fraction was 67.3% in series [1] and 51.7% on GV sPLA2. Moreover, the “cPLA2 inh, XI(50)” value in series [2] is on record as “XI(50) =0.050 ± .002 mole fraction”.

As to `CCC(=O)C(=O)NCCCCC(=O)OC(C)(C)C` [AX105], the inhibition at 0.091 mole fraction in series [1] is 61.7%; on GV sPLA2, 96.3%; in series [2], 73.8%.

With `CCCC[C@@H](COCC(=O)OC(C)(C)C)NC(=O)C(=O)CC` [AX122], the inhibition at 0.091 mole fraction is 81% in series [1], 57.2% on GV sPLA2 and 43.6% in series [2].

Broadly, the melting point is the temperature of the solid-liquid transition. Broadly, the inhibition is the drop in the measured response relative to a control, in per cent.
